In this assay the test system is IL-12 induced STAT4 phosphorylation mediated by TYK2/JAK2. Nature of the assay: IL-12 induced pSTAT4 in human PBMC. The assay is classed as cell-based. The conditions noted are these: 1 hr compound, 1.7 ng/mL IL-12 for 30 minutes. An outline of the steps: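 Thawed human PBMC were pre-incubated with compound for 1 hr at 37 °C (0.1% DMSO), then stimulated with 1.7 ng/mL IL-12 for 30 minutes. Phospho-STAT4 and total STAT4 were measured in cell lysates by MSD.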

The structures appear in SMILES notation. Bounds are passed on as bounds.

Take `CNc1cc(-c2cn([C@H]3CCOC[C@H]3OC)c3ncccc23)nc2c(C(=O)N[C@H]3CC[C@@H]3OC)cnn12` [Compound I-666]: the half-inhibitory concentration (IC50) was < 0.1 µM. Consider `CNc1cc(-c2cn([C@@H]3CCOC[C@@H]3OC)c3ncccc23)nc2c(C(=O)NC3CC[C@@H]3OC)cnn12` (stereo partly drawn) [Compound I-668], for which the IC50 was < 0.1 µM. In the case of `CNc1cc(-c2cn([C@@H]3CCOC[C@@H]3OC)c3ncccc23)nc2c(C(=O)N[C@H]3CC[C@@H]3OC)cnn12` [Compound I-669], the IC50 was < 0.1 µM.

For `CNc1cc(-c2cn([C@H]3CCC4(C3)OCCO4)c3ncccc23)nc2c(C(=O)NC3CC[C@@H]3OC)cnn12` (stereo partly drawn) [Compound I-671], the IC50 was < 0.1 µM.

For `CNc1cc(-c2cn([C@@H]3CCC4(C3)OCCO4)c3ncccc23)nc2c(C(=O)NC3CC[C@@H]3OC)cnn12` (stereo partly drawn) [Compound I-672], the half-inhibitory concentration (IC50) was < 0.1 µM. The figure for `CNc1cc(-c2cn(C3COC3)c3ncccc23)nc2c(C(=O)NC3CCC3(F)F)cnn12` (stereo not drawn) [Compound I-673] is < 0.1 µM. Regarding `CNc1cc(-c2cn(C3COC3)c3ncccc23)nc2c(C(=O)N[C@@H]3CCC3(F)F)cnn12` [Compound I-675], the IC50 was < 0.1 µM. Turning to `CNc1cc(-c2cn(C3CN(C)C3)c3ncccc23)nc2c(C(=O)NC3CCC3(F)F)cnn12` (stereo not drawn) [Compound I-676], the IC50 is < 0.1 µM. As to `CNc1cc(-c2cn([C@H]3C[C@@H](O)C3)c3ncccc23)nc2c(C(=O)NC3CCC3(F)F)cnn12` (stereo partly drawn) [Compound I-677], the IC50 is < 0.1 µM. The figure for `CNc1cc(-c2cn(C3CCCC3)c3ncccc23)nc2c(C(=O)NC3CCC3(F)F)cnn12` (stereo not drawn) [Compound I-680] is < 0.1 µM. The figure for `CNc1cc(-c2cn(C3CCCC3)c3ncccc23)nc2c(C(=O)N[C@@H]3CCC3(F)F)cnn12` [Compound I-681] is < 0.1 µM; for `CNc1cc(-c2cn(C3CCCC3)c3ncccc23)nc2c(C(=O)N[C@H]3CCC3(F)F)cnn12` [Compound I-685] it is < 0.1 µM; for `CNc1cc(-c2cn([C@@H]3CCN(C)C3)c3ncccc23)nc2c(C(=O)NC3CCC3(F)F)cnn12` (stereo partly drawn) [Compound I-686] it is < 0.1 µM. The figure for `CNc1cc(-c2cn([C@@H]3COC[C@H]3O)c3ncccc23)nc2c(C(=O)NC3CCC3(F)F)cnn12` (stereo partly drawn) [Compound I-692] is < 0.1 µM; for `CNc1cc(-c2cn([C@@H]3COC[C@H]3O)c3ncccc23)nc2c(C(=O)N[C@H]3CCC3(F)F)cnn12` [Compound I-693] it is < 0.1 µM; for `CNc1cc(-c2cn([C@H]3COC[C@@H]3O)c3ncccc23)nc2c(C(=O)NC3CCC3(F)F)cnn12` (stereo partly drawn) [Compound I-695] it is < 0.1 µM. Take `CNc1cc(-c2cn(C3CCOCC3)c3ncccc23)nc2c(C(=O)N[C@H]3CCC3(F)F)cnn12` [Compound I-699]: the IC50 was < 0.1 µM. The figure for `CNc1cc(-c2cn([C@@H]3CCOC[C@@H]3OC)c3ncccc23)nc2c(C(=O)NC3CCC3(F)F)cnn12` (stereo partly drawn) [Compound I-702] is < 0.1 µM; for `CNc1cc(-c2cn([C@@H]3CCOC[C@@H]3OC)c3ncccc23)nc2c(C(=O)N[C@H]3CCC3(F)F)cnn12` [Compound I-703] it is < 0.1 µM. As to `CNc1cc(-c2cn([C@H]3CC3(F)F)c3ncccc23)nc2c(C(=O)N[C@@H]3COC[C@@H]3O)cnn12` [Compound I-711], the IC50 is < 0.1 µM. In the case of `CNc1cc(-c2cn([C@H]3CCC[C@H]3F)c3ncccc23)nc2c(C(=O)N[C@H]3COC[C@H]3O)cnn12` [Compound I-722], the IC50 was < 0.1 µM.

Take `CNc1cc(-c2cn([C@H]3COC[C@H]3F)c3ncccc23)nc2c(C(=O)N[C@H]3COC[C@H]3O)cnn12` [Compound I-726]: the IC50 was < 0.1 µM. The figure for `CNc1cc(-c2cn([C@H]3COC[C@@H]3OC)c3ccccc23)nc2c(C(=O)NC3CC[C@@H]3OC)cnn12` (stereo partly drawn) [Compound I-741] is < 0.1 µM; for `CNc1cc(-c2cn([C@H]3COC[C@@H]3OC)c3ccccc23)nc2c(C(=O)N[C@H]3CC[C@@H]3OC)cnn12` [Compound I-742] it is < 0.1 µM.

One may read the IC50 as the concentration needed to halve the response being measured. The low end stands for greater potency in that assay, the high end for weaker potency in that assay.

(Values after US12221453B2, “Substituted pyrazolo[5′,1′:2,3]pyrimido[5,4-b][1,4]oxazines as TYK2 inhibitors” (TAKEDA PHARMACEUTICAL COMPANY LIMITED, priority 2018, dated 2025).)
